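Cultured in 96-well plates, cells were exposed to test compound for 48 hours across five concentrations. GI50: concentration for 50% inhibition of growth.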 Calls of active or inactive are those of the source. Rule as the data show it: active = GI50 up to about 1.1 µM and inactive = higher.
How the values were obtained:
Assay in all cases: NCI-60 cell line screen, 48 h
[1] = system: SR
[2] = system: IGROV-1
[3] = system: UACC-62
[4] = system: CAKI-1
[5] = system: SW-620
[6] = system: OVCAR-3
[7] = system: HOP-62
[8] = system: HT-29
[9] = system: A498
[10] = system: MOLT-4
[11] = system: NCI-H460
[12] = system: UO-31
[13] = system: SK-OV-3
[14] = system: OVCAR-4
[15] = system: M14
[16] = system: HCC 2998
[17] = system: ACHN
[18] = system: 786-0
[19] = system: RPMI-8226
[20] = system: T47D

SMILES	GI50 [1]	GI50 [2]	GI50 [3]	GI50 [4]	GI50 [5]	GI50 [6]	GI50 [7]	GI50 [8]	GI50 [9]	GI50 [10]	GI50 [11]	GI50 [12]	GI50 [13]	GI50 [14]	GI50 [15]	GI50 [16]	GI50 [17]	GI50 [18]	GI50 [19]	GI50 [20]
CCOC(=O)C1=C(C)N(Cc2ccccc2)C(C)=C(C(=O)OCC)C1c1ccccc1O	15.9 µM (inactive)	25.5 µM (inactive)	18.1 µM (inactive)	27.2 µM (inactive)	39.9 µM (inactive)	25.2 µM (inactive)	31.5 µM (inactive)	41.4 µM (inactive)	33.7 µM (inactive)	11.3 µM (inactive)	42.3 µM (inactive)	32.1 µM (inactive)	47.2 µM (inactive)	34.8 µM (inactive)	33.7 µM (inactive)	44.8 µM (inactive)	28.1 µM (inactive)	44.6 µM (inactive)	–	–
CN(C)C(=S)N/N=C\C=N/NC(=S)N(C)C	–	0.47 µM (active)	0.802 µM (active)	0.447 µM (active)	0.0569 µM (active)	0.0295 µM (active)	0.129 µM (active)	0.0625 µM (active)	0.643 µM (active)	–	0.0231 µM (active)	0.237 µM (active)	0.344 µM (active)	0.148 µM (active)	0.139 µM (active)	–	0.238 µM (active)	0.209 µM (active)	0.871 µM (active)	0.384 µM (active)
O=C1CC(C[C@H](O)C2CCCCC2O)CC(=O)N1Cc1ccccc1 (stereo partly drawn)	> 100 µM (inactive)	> 100 µM (inactive)	> 100 µM (inactive)	> 100 µM (inactive)	> 100 µM (inactive)	> 100 µM (inactive)	> 100 µM (inactive)	> 100 µM (inactive)	> 100 µM (inactive)	> 100 µM (inactive)	> 100 µM (inactive)	> 100 µM (inactive)	> 100 µM (inactive)	> 100 µM (inactive)	> 100 µM (inactive)	> 100 µM (inactive)	> 100 µM (inactive)	> 100 µM (inactive)	–	–
C[N+]1(C)C/C(=C\c2ccccc2)C(=O)/C(=C/c2ccccc2)C1	63 µM (inactive)	> 100 µM (inactive)	–	–	–	> 100 µM (inactive)	> 100 µM (inactive)	> 100 µM (inactive)	> 100 µM (inactive)	32.8 µM (inactive)	> 100 µM (inactive)	> 100 µM (inactive)	> 100 µM (inactive)	> 100 µM (inactive)	> 100 µM (inactive)	> 100 µM (inactive)	> 100 µM (inactive)	> 100 µM (inactive)	51.2 µM (inactive)	–
N#CC(c1nc2ccccc2s1)c1ncnc(Cl)c1[N+](=O)[O-] (stereo not drawn)	–	14.6 µM (inactive)	–	25.2 µM (inactive)	19.3 µM (inactive)	20.1 µM (inactive)	28.8 µM (inactive)	17.4 µM (inactive)	> 100 µM (inactive)	31.8 µM (inactive)	20.3 µM (inactive)	27.9 µM (inactive)	37.8 µM (inactive)	27.7 µM (inactive)	17.5 µM (inactive)	–	37.6 µM (inactive)	20.1 µM (inactive)	28.1 µM (inactive)	29.1 µM (inactive)
c1ccc(C2CC(c3ccc4ccccc4c3)=Nc3ccccc3S2)cc1 (stereo not drawn)	23.7 µM (inactive)	22.8 µM (inactive)	16.9 µM (inactive)	> 10 µM (inactive)	18.8 µM (inactive)	17.3 µM (inactive)	17.1 µM (inactive)	17.1 µM (inactive)	17.3 µM (inactive)	30.4 µM (inactive)	15.7 µM (inactive)	12.5 µM (inactive)	38.5 µM (inactive)	19.5 µM (inactive)	15.8 µM (inactive)	11.9 µM (inactive)	16.7 µM (inactive)	16.6 µM (inactive)	3.26 µM (inactive)	–
CC(=O)O/C(C)=C\C(=O)O/N=C(\N)c1ccc(C)cc1	20.5 µM (inactive)	28.3 µM (inactive)	22.7 µM (inactive)	> 100 µM (inactive)	39.4 µM (inactive)	34.7 µM (inactive)	33.1 µM (inactive)	35.6 µM (inactive)	62.7 µM (inactive)	23.1 µM (inactive)	29.6 µM (inactive)	61.1 µM (inactive)	> 100 µM (inactive)	25.8 µM (inactive)	28.4 µM (inactive)	> 100 µM (inactive)	33 µM (inactive)	52 µM (inactive)	31 µM (inactive)	–
COc1cc(C2c3cc4c(cc3[C@@H](Nc3ccc5c(c3)OCCO5)C3COC(=O)[C@H]23)OCO4)cc(OC)c1O (stereo partly drawn)	< 0.0364 µM (active)	0.906 µM (active)	0.257 µM (active)	0.113 µM (active)	0.586 µM (active)	0.959 µM (active)	0.22 µM (active)	0.555 µM (active)	0.19 µM (active)	0.035 µM (active)	0.0156 µM (active)	0.499 µM (active)	1.58 µM (inactive)	5.97 µM (inactive)	0.327 µM (active)	1.1 µM (active)	0.585 µM (active)	0.199 µM (active)	0.532 µM (active)	–
